We go through two substances from patent publication US8202507B2, “Assay for vitamin B12 absorption and method of making labeled vitamin B12” (The Regents of the University of California, priority 2004, dated 2012).

The conditions of data set [1]: cited from earlier work.
A short description of data set [2]: AMS assay of B12 absorption in a normal human subject after oral ^14C-vitamin B12. In kind it is in vivo. Particulars: for total of oral dose recovered in urine and feces: seven days post-dose, cumulative urine and stool; for delay in the appearance of the label in plasma: plasma by AMS. Here is the method:
This example describes the use of this labeled B12 and AMS to assay B12 absorption in a normal human subject. A single 1.5 μg dose of the ^14C-vitamin B12 was administered orally and detected by AMS as it appeared in the bloodstream.
The subject was a healthy person with a body mass index (BMI) of 27.5. The subject began complete fecal and urine collection 24 h in advance of the dose and continued complete 24 h collections until Day 7. On the day of dose administration, the subject was fitted with an intravenous catheter in a forearm vein. Blood was drawn into 7 mL tubes containing EDTA. A baseline blood sample was drawn (7 AM) and the dose consumed that corresponded to 2.2 KBq of radioactivity (1.5 μg) was administered in 50 mL of drinking water in a paper cup. The volunteer was allowed to have water ad libitum thereafter, with a light meal taken 2 hr postdose. Blood samples were drawn at frequent intervals for the first 15 hr post-dose and daily thereafter. Meals were controlled for time and content on the dose administration day.
AMS analysis. Aliquots of plasma (30 μL), urine (80 μL) and a stool slurry (80 μL) were dried, combusted to CO2, and reduced to filamentous carbon using known procedures. No other processing preceded the graphization step, thus quantitative recovery was ensured. The ^14C measurements were performed at the Center for Accelerator Mass Spectrometry at Lawrence Livermore National Laboratory. Measurements were conducted to <3% instrument imprecision and, in general, signal acquisition was complete to the desired statistical precision in 3-5 min per sample. The radiation exposure of the subject, due to the ^14C-B12 dose, was equivalent or less than exposure due to 10 hours of intercontinental plane flight.

For the substance Cyanocobalamin, in data set [1] (25° C.), the solubility in water is recorded as 1.2%. Moreover, in data set [1], the “solubility in acetone, chloroform and ether” value is listed as “insoluble”; the “solubility in alcohol and phenol” value is “soluble”.
Consider ^14C-cyanocobalamin [^14C-vitamin B12], for which the “total of oral dose recovered in urine and feces” value in data set [2] is recorded as 15.8%; in data set [2] (listed as 14C), 15.9%. In addition, the “share of the quantified output accounted for” value in data set [2] (seventy-two hours post-dose, urine and feces) worked out at 99%. The “delay in the appearance of the label in plasma” value was “two to three” in data set [2] (single 1.5 μg oral dose) and “three” in data set [2] (single 1.5 μg oral dose, listed as 14C from the labeled vitamin B12). Also, the “peak circulating ^14C-B12 as percent of the administered dose” value in data set [2] (single 1.5 μg oral dose, plasma, at peak after seven hours) is listed as “less than three”. Further, in data set [2] (single 1.5 μg oral dose, urine, no flushing dose), the “label in the twenty-four hour urine collection” value is 6.8 % of administered dose.
